Laboratory results: publication PMC9085577, “Discovery of a Potent and Orally Active Dual GPBAR1/CysLT1R Modulator for the Treatment of Metabolic Fatty Liver Disease” (Frontiers in Pharmacology, 2022)
Where “and” joins values, the source holds several entries; their conditions need not be identical. Equal entries are not always repeated.

How the values were obtained:
Human CysLT1 (LTD4) = molecular target: T1, Human CysLT1 (LTD4) (Homo sapiens, UniProt Q9Y271); experiment: Human CysLT1 (LTD4) antagonist effect cellular functional assay (Ca2+ fluorescence, Eurofins Cerep-Panlabs); assay type: cell-based; details: antagonist effect, 0.1 nM LTD4; read-out: CysLT1R IC50
T1 construct: Eurofins Cerep-Panlabs (France), contract assay
T1 sequence (Q9Y271 1-337): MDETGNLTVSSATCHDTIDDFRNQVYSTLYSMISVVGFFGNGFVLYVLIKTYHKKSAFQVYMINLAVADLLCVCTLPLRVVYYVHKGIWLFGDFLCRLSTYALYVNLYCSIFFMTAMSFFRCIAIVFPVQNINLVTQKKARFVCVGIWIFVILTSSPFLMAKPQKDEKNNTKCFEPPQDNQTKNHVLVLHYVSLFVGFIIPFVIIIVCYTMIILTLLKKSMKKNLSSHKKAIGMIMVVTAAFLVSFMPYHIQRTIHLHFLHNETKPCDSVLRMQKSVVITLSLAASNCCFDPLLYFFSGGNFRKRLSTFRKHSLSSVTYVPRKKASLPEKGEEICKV
Procedure: Human CysLT1 (LTD4) (h) (antagonist effect) Cellular Functional Assay. These assays were performed at Eurofins Cerep-Panlabs (France). The cells were suspended in DMEM buffer (Invitrogen) and then distributed in microplates at a density of 3.104 cells/well. […] Thereafter, the assay plates are positioned in a microplate reader (CellLux, PerkinElmer), which was used for the addition of the test compound or HBSS buffer, then 5 min later, 0.1 nM LTD4 or HBSS buffer (basal control), and measured the changes in fluorescence intensity, which varies proportionally to the free cytosolic Ca^2+-ion concentration.

[1] = Metabolic stability in human liver microsomes; assay type: in vitro ADME
Procedure: Metabolic Stability. All compounds were tested at the final concentration of 1 µM in a 50 mM potassium phosphate buffer (pH 7.4) containing 1% DMSO as vehicle. For microsomes assay, the incubation mixtures contained 0.15 mg of Human liver microsomes (Sigma-Aldrich, St. Louis, MO, United States), 5 mM MgCl2, 1 mM NADPH, 5 mM glucose 6-phosphate, 0.4 U mL^−1 glucose 6-phosphate dehydrogenase. For S9 fraction analysis, the buffer contained 0.15 mg of S9 proteins (Sigma-Aldrich, St. Louis, MO, United States), 0.3 mM NADPH, 5.6 mM glucose-6-phosphate, 0.6 units/mL glucose-6-phosphate dehydrogenase, 5.8 mM UDP-glucuronic acid, 0.05 mM acetyl-CoA, 0.5 mM dithiothreitol, 0.5 mM 3′-phosphoadenosine 5′-phosphosulfate, 1 mM glutathione, 0.2 mM acetyl carnitine, 4 units/mL carnitine acetyl transferase, 0.5 mM glycine, and 0.5 mM taurine.
Samples were kept at 37°C and aliquots were removed at 0, 5, 15, 30, 45, 60, 90, 120, 150 min after protein additions. The reaction was stopped by adding 200 µL of ice-cold acetonitrile to withdrawn aliquots. After 2 h, samples were centrifuged for 10 min at 10,000 rpm, and supernatants were subjected to LC-MS/MS analysis.
The slope of the linear regression of the curve obtained reporting the natural logarithm of compound area versus incubation time (−k) was used in the conversion to in vitro t1/2 values by t1/2 = […].
In vitro intrinsic clearance (Clint expressed as µL/min/mg) was calculated according to the following formula: Clint = Vx 0.693/t1/2 were V = volume of reaction (µL)/protein in the incubation (mg). Testosterone was used as a positive control for microsome and phase I enzymes, and 7-hydroxycoumarin was used as positive control for phase II enzymes.

IC50 (Human CysLT1 (LTD4)): 5.6 µM and 5.67 µM | stability to Phase I enzymes contained in microsomal fraction [1]: highly stable | microsomal CLint at 1 µM ([1]; pH 7.4, human liver microsomes, 1 µM): 4 µL/min/mg | half-life at 1 µM ([1]; pH 7.4, human liver microsomes, 1 µM, read-out: Microsomes t1/2): 9.63 h
Compound: O=C(O)c1cccc(-c2ccc(OCc3ccc4ccccc4n3)cc2)c1 [Compound 2, 4'-(quinolin-2-ylmethoxy)-[1,1′-biphenyl]-3-carboxylic acid]
